This is an account of results in EPA's ToxValDB 9.5.

In general, NOAEL refers to the highest dose or exposure tested at which no adverse effect was seen. For orientation: LOAEL means the lowest tested level that showed an adverse finding.

The subject of one data set is Perdix perdix. The conditions noted are these: oral.
Data set [1] relates to Rattus norvegicus. The conditions noted are these: repeat dose other; oral.
For the next data set, the system named is Canidae. The following applies: chronic, duration: 1 years, oral, diet, Dog Other, Decreased weight gain in males and neurologic findings in both sexes.
Data set [2] concerns Rattus norvegicus.
For data set [3], the system named is Oryctolagus sp. The conditions noted are these: reproduction developmental; duration: 22 days; oral; gavage; M/F; New Zealand; neurological.
For data set [4], the system named is Rattus norvegicus. This is another data set of the same source.
The subject of data set [5] is Rattus norvegicus. The conditions noted are these: chronic; duration: 2 years; oral; diet; Blood vessel: Aneurysms + Kidney: Glomerulonephrosis + Whole body: Decreased weight gain.
The test system of a further data set is Bacteria. The following applies: In vitro / microbiological growth inhibition; Growth inhibition.
Data set [6] deals with Rattus norvegicus. The conditions noted are these: for LC50 / LD50: acute; for LC50: Inhalation.
For data set [7], the system named is Rattus norvegicus. The data set can be described thus: LD40; higher = less toxic. The conditions noted are these: acute; oral; gavage; Wistar.
For data set [8], the system named is Mus musculus. The following applies: chronic; duration: 2 years; oral; diet; M/F; Tif MAG; Uterine pathology.
In data set [9] the test system is Cavia porcellus. The conditions noted are these: acute; oral; Guinea Pig.
Data set [10] concerns Mammals. The following applies: acute; Inhalation.
Data set [11] deals with Mus musculus. The following applies: acute; oral.
The subject of data set [12] is Cavia porcellus. The data set can be described thus: LD100; higher = less toxic. The conditions noted are these: acute; oral; Guinea Pig.
Data set [13] concerns Mammals. The data set can be described thus: LD100; higher = less toxic. The conditions noted are these: acute; Oral.
Data set [14] concerns Rattus norvegicus. The data set can be described thus: LD100; higher = less toxic. The conditions noted are these: acute.
For data set [15], the system named is Cavia porcellus. The conditions noted are these: chronic; duration: 26 weeks; inhalation; M/F; Guinea Pig; methemoglobin increase, spleen toxicity.
The subject of data set [16] is Mus musculus. The following applies: chronic; duration: 26 weeks; inhalation; M/F; methemoglobin increase, spleen toxicity.
Data set [17] deals with Rattus norvegicus. The conditions noted are these: chronic; duration: 104 weeks; oral; diet; M/F; Crl:CD1; Immune, Hematologic.
A further data set concerns Guinea Pig, Mouse, Rat. The following applies: subchronic; inhalation; intermittent; Spleen: Pathology.
Data set [18] concerns Gallus sp. The conditions noted are these: subchronic; duration: 90 days; oral; F; ataxia, delayed neurotoxicity and weight loss.
For data set [19], the system named is Gallus sp. The conditions noted are these: subchronic; duration: 3 months; oral; capsule; Nervous system: Ataxia + Nervous system: Delayed neurotoxicity + Whole body: Decreased weight.
For data set [20], the system named is Mus musculus. The following applies: uterotrophic; duration: 3 days; injection; subcutaneous; Active.
For data set [21], the system named is Oryctolagus sp. The conditions noted are these: uterotrophic; injection; subcutaneous; Active.
The subject of data set [22] is Rattus norvegicus. The conditions noted are these: uterotrophic, Active.
Another data set concerns Homo sapiens. The following applies: duration: 10 days, oral, F, Withdrawal bleeding.
The subject of the next data set is Monkey. The conditions noted are these: chronic; oral; F; Cyanomolgus; Altered serum hormones & menstrual cyclicity.
Where [23] appears, read: chronic, duration: 2 years, oral, diet, F, increased incidence of marked progressive glomerulonephrosis and blood vessel aneurysms in males + Reduced body weight gain in males and ….

≈ marks a conversion by molar mass, not a printed value. Where “and” joins values, the source holds several entries; their conditions need not be identical. Equal values may be shown once.

Regarding `O=S1OCC2C(CO1)C1(Cl)C(Cl)=C(Cl)C2(Cl)C1(Cl)Cl` (stereo not drawn) [Endosulfan], the NOAEL in the data set with Perdix perdix came out at 10 mg/kg-day; in the data set with Rattus norvegicus [1], 0.15 mg/kg-day; with Canidae (F) it was 0.57 mg/kg-day; with Rattus norvegicus [2] (setting [23]), 0.7 mg/kg-day; in the data set on Rattus norvegicus [2] (chronic, duration: 2 years, oral, diet, M, reduced body weight gain (males) and females increased incidence of marked progressive glomerulonephrosis and blood vessel aneurysms (males)), 0.6 mg/kg-day; with Oryctolagus sp. [3] it was 0.7 mg/kg-day. Moreover, the no observed adverse effect level (NOAEL) in the data set on Rattus norvegicus [4] (chronic, duration: 22 weeks, oral, diet, M, Wistar, immunological) stood at 0.45 mg/kg-day; in the data set with Rattus norvegicus [5], 1.17 mg/kg-day. Further, the LOAEL with Canidae (F) came to 1.9 mg/kg-day; in the data set on Canidae (M) it was 2.1 mg/kg-day; with Rattus norvegicus [2] (setting [23]), 3.8 mg/kg-day; with Rattus norvegicus [2] (chronic, duration: 2 years, oral, diet, M, increased incidence of marked progressive glomerulonephrosis and blood vessel aneurysms in males + Reduced body weight gain in males and …), 2.9 mg/kg-day.
In the data set with Bacteria, `CC1(C)S[C@@H]2[C@H](NC(=O)[C@H](N)c3ccc(O)cc3)C(=O)N2[C@H]1C(=O)O` [Amoxicillin] yielded an NOAEC of 0.1 µg/mL.
In turn, `CC(C)(C)C(=O)CCc1ccc(Cl)cc1` [1-(4-Chlorophenyl)-4,4-dimethyl-pentan-3-one] displayed an LC50 in the data set on Rattus norvegicus [6] (Wistar) of more than 2940 mg/m3. Further, the LD50 in the data set on Rattus norvegicus [6] (dermal, occlusive, Wistar) is more than 5000 mg/kg; in the data set with Rattus norvegicus [6] (oral, gavage, Wistar) it was 4750 mg/kg and > 5000 mg/kg and 4820 mg/kg. For the same compound, in the data set on Rattus norvegicus [7], the LD40 was determined as 3140 mg/kg.
Take `O=C(NC(=O)c1c(F)cccc1F)Nc1ccc(Cl)c(Oc2ncc(C(F)(F)F)cc2Cl)c1` [Fluazuron]: the NOEL with Mus musculus [8] came to 4.3 mg/kg-day.
In the case of `C1COCCN1` [Morpholine], the LD50 in the data set on Cavia porcellus [9] was 900 mg/kg; in the data set with Mus musculus [11] it was 525 mg/kg; in the data set with Rattus norvegicus [6] (inhalation), ≥ 7.8 mg/L and ≤ 8.2 mg/L. The compound further displayed an LC50 in the data set on Mammals [10] of 12 µg/mL (≈ 138 µM). The LD100 in the data set on Cavia porcellus [12] is 100 mg/kg; with Mammals [13] it was 1220 mg/kg; in the data set on Rattus norvegicus [14] (injection, Intraperitoneal) it was 400 mg/kg; in the data set with Rattus norvegicus [14] (oral) it was 100 mg/kg.
Turning to `Nc1ccccc1` [Aniline], the NOAEL stood at 38.1 mg/m3 with Rattus norvegicus [6] (short-term, duration: 2 weeks, inhalation); 19 mg/m3 with Cavia porcellus [15]; 19 mg/m3 with Mus musculus [16]; 19 mg/m3 with Rattus norvegicus [2] (chronic, duration: 26 weeks, inhalation, M/F, methemoglobin increase, spleen toxicity); 19 mg/m3 in the data set on Guinea Pig, Mouse, Rat. In addition, the LOAEL with Rattus norvegicus [2] (short-term, inhalation, M, Mild spleen toxicity 2-Week) amounted to 64.7 mg/m3; with Rattus norvegicus [17], 7 mg/kg-day.
Consider `CCCCSP(=O)(SCCCC)SCCCC` [Tribufos], for which the LC50 in the data set on Rattus norvegicus [6] (Sprague-Dawley) was ≥ 2460 mg/m3 and ≤ 4650 mg/m3. The compound also showed an LOAEL with Gallus sp. [18] of 0.5 mg/kg-day. Also, the NOEL with Gallus sp. [18] and in the data set on Gallus sp. [19] was 0.1 mg/kg-day throughout. The NOAEL is 0.28 mg/kg-day in the data set on Rattus norvegicus [4] (reproduction developmental, duration: 364 days, oral, diet, M, Sprague-Dawley, neurological) and 2.43 mg/m3 in the data set with Rattus norvegicus [4] (subchronic, duration: 13 weeks, inhalation, head only, M/F, Wistar, neurological).
In the case of `CC(=O)[C@H]1CC[C@H]2[C@@H]3CCC4=CC(=O)CC[C@]4(C)[C@H]3CC[C@]12C` [Progesterone], the LEL with Mus musculus [20] was 0.087 mg; in the data set on Oryctolagus sp. [21], 1 mg/day; in the data set with Rattus norvegicus [22] (duration: 2 days, oral) it was 0.5 mg/kg-day; in the data set on Rattus norvegicus [22] (duration: 4 days, injection, intraperitoneal), 50 mg/kg-day; in the data set with Rattus norvegicus [22] (duration: 14 days, oral), 10 mg. In addition, the “LEL (gamma)” value with Mus musculus [20] amounted to 30. In addition, the LOEL in the data set with Homo sapiens (Clinical) and in the data set on Homo sapiens (clinical) was 3.3 mg/kg-day in each case.
In the data set on Monkey, `C=C1C[C@H]2[C@@H]3C=C(C)C4=CC(=O)CC[C@]4(C)[C@H]3CC[C@]2(C)[C@@]1(OC(C)=O)C(C)=O` [Melengestrol acetate] gave an LOEL of 0.005 mg/kg-day.
